Assay results from patent US10597388B2, “Pyridazinone herbicides” (FMC CORPORATION, priority 2014, dated 2020).

How the values were obtained:
Assay in all cases: Test D controlled growth environment herbicide test, pre- and postemergence
Type in all cases: in vivo
[1] = tested on: speedwell (bird's-eye speedwell, Veronica persica)
Outline: (§1)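 Species sown in silt loam and sprayed preemergence, or grown in peat-based medium to 2–18 cm (1- to 4-leaf stage) and sprayed postemergence, with compounds in non-phytotoxic solvent plus surfactant. Visual injury scored versus controls after 14–21 d in a controlled environment, 0 (no effect) to 100 (complete control).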

[2] = tested on: oat, wild (wild oat, Avena fatua)
Outline: as §1

[3] = tested on: oilseed rape (Brassica napus)
Outline: as §1

[4] = tested on: barley, spring (spring barley, Hordeum vulgare)
Outline: as §1

[5] = tested on: chamomile (scentless chamomile, Matricaria inodora)
Outline: as §1

[6] = tested on: lambsquarters (Chenopodium album)
Outline: as §1

[7] = tested on: mustard, wild (wild mustard, Sinapis arvensis)
Outline: as §1

[8] = tested on: radish, wild (wild radish, Raphanus raphanistrum)
Outline: as §1

[9] = tested on: bromegrass, downy (downy bromegrass, Bromus tectorum)
Outline: as §1

[10] = tested on: wheat, spring (spring wheat, Triticum aestivum)
Outline: as §1

[11] = tested on: field violet (Viola arvensis)
Outline: as §1

[12] = tested on: windgrass (Apera spica-venti)
Outline: as §1

[13] = tested on: deadnettle (henbit deadnettle, Lamium amplexicaule)
Outline: as §1

[14] = Postemergence, 31 g ai/ha, scale 0 to 100 (0 no effect, 100 complete control)
[15] = Postemergence, 125 g ai/ha, visual rating on scale 0 (no effect) to 100 (complete control), 14 to 21 d
[16] = Postemergence, 250 g ai/ha, scale 0 to 100 (0 no effect, 100 complete control)
[17] = Preemergence, 125 g ai/ha, scale 0 to 100 (0 no effect, 100 complete control)
[18] = Preemergence, 250 g ai/ha, scale 0 to 100 (0 no effect, 100 complete control)
[19] = postemergence, 62 g ai/ha, scale 0 to 100, 0 no effect, 100 complete control
[20] = Preemergence, 62 g ai/ha, scale 0 to 100 (0 no effect, 100 complete control)

CCOC(=O)Oc1c(C)nn(C)c(=O)c1-c1c(C)sc2ccc(C)cc12 [Compound 82]
20: Plant response rating, Radish, Wild [8, 19]
30: Plant response rating (scale of 0 to 100), Oilseed Rape ([3]; Preemergence, 31 g ai/ha)
0: Barley, Spring plant response rating [4, 14] | Plant response rating, Barley, Spring [4, 15] | Plant response rating (scale of 0 to 100), Barley, Spring ([4]; Preemergence, 31 g ai/ha) | Plant response rating, Barley, Spring [4, 20] | Plant response rating, Barley, Spring [4, 17] | Plant response rating (scale of 0 to 100), Mustard, Wild ([7]; Preemergence, 31 g ai/ha) | Plant response rating (scale of 0 to 100), Mustard, Wild ([7]; Preemergence, 62 g ai/ha) | Wheat, Spring plant response rating [10, 14] | Plant response rating, Wheat, Spring [10, 15] | Plant response rating (scale of 0 to 100), Wheat, Spring ([10]; Preemergence, 31 g ai/ha) | Plant response rating (scale of 0 to 100), Wheat, Spring ([10]; Preemergence, 62 g ai/ha) | Plant response rating, Wheat, Spring [10, 19]
50: Plant response rating, Radish, Wild [8, 15]
90: Oat, Wild plant response rating [2, 14] | Plant response rating, Oat, Wild [2, 19] | Chamomile plant response rating [5, 14] | Plant response rating (scale of 0 to 100), Field Violet ([11]; Preemergence, 62 g ai/ha)
40: Plant response rating, Mustard, Wild [7, 15] | Plant response rating, Wheat, Spring [10, 18]
65: Plant response rating (scale of 0 to 100), Radish, Wild ([8]; Preemergence, 31 g ai/ha) | Plant response rating, Bromegrass, Downy [9, 20]
95: Plant response rating, Oat, Wild [2, 15] | Plant response rating, Oat, Wild [2, 16] | Plant response rating, Oat, Wild [2, 17] | Plant response rating, Oat, Wild [2, 18] | Lambsquarters plant response rating [6, 14] | Plant response rating, Lambsquarters [6, 15] | Plant response rating (scale of 0 to 100), Lambsquarters ([6]; Preemergence, 62 g ai/ha) | Plant response rating, Lambsquarters [6, 19] | Field Violet plant response rating [11, 14] | Plant response rating, Field Violet [11, 17]
75: Plant response rating (scale of 0 to 100), Speedwell ([1]; Preemergence, 31 g ai/ha) | Plant response rating (scale of 0 to 100), Speedwell ([1]; Preemergence, 62 g ai/ha) | Plant response rating, Speedwell [1, 19] | Plant response rating (scale of 0 to 100), Lambsquarters ([6]; Preemergence, 31 g ai/ha) | Plant response rating (scale of 0 to 100), Windgrass ([12]; Preemergence, 31 g ai/ha) | Plant response rating, Windgrass [12, 19]
85: Plant response rating, Speedwell [1, 15] | Plant response rating, Speedwell [1, 16] | Plant response rating (scale of 0 to 100), Oat, Wild ([2]; Preemergence, 62 g ai/ha) | Plant response rating, Bromegrass, Downy [9, 18] | Plant response rating, Windgrass [12, 16]
80: Plant response rating (scale of 0 to 100), Oat, Wild ([2]; Preemergence, 31 g ai/ha) | Plant response rating, Oilseed Rape [3, 16] | Plant response rating, Bromegrass, Downy [9, 17] | Plant response rating, Windgrass [12, 15] | Plant response rating (scale of 0 to 100), Windgrass ([12]; Preemergence, 62 g ai/ha)
45: Plant response rating, Oilseed Rape [3, 19] | Plant response rating (scale of 0 to 100), Bromegrass, Downy ([9]; Preemergence, 31 g ai/ha) | Plant response rating, Bromegrass, Downy [9, 19]
70: Speedwell plant response rating [1, 14] | Plant response rating, Mustard, Wild [7, 16] | Windgrass plant response rating [12, 14] | Plant response rating, Deadnettle [13, 18]
25: Oilseed Rape plant response rating [3, 14] | Mustard, Wild plant response rating [7, 14] | Plant response rating, Mustard, Wild [7, 17] | Radish, Wild plant response rating [8, 14] | Plant response rating, Deadnettle [13, 15] | Plant response rating (scale of 0 to 100), Deadnettle ([13]; Preemergence, 62 g ai/ha) | Plant response rating, Deadnettle [13, 17]
60: Plant response rating, Oilseed Rape [3, 15] | Plant response rating, Oilseed Rape [3, 18] | Plant response rating, Radish, Wild [8, 16] | Plant response rating (scale of 0 to 100), Radish, Wild ([8]; Preemergence, 62 g ai/ha) | Plant response rating, Radish, Wild [8, 17] | Plant response rating, Bromegrass, Downy [9, 15] | Plant response rating, Bromegrass, Downy [9, 16]
35: Plant response rating (scale of 0 to 100), Oilseed Rape ([3]; Preemergence, 62 g ai/ha) | Plant response rating, Oilseed Rape [3, 17] | Plant response rating, Mustard, Wild [7, 19] | Plant response rating, Deadnettle [13, 16]
55: Bromegrass, Downy plant response rating [9, 14]
15: Plant response rating, Mustard, Wild [7, 18] | Plant response rating, Wheat, Spring [10, 17]
100: Plant response rating, Speedwell [1, 17] | Plant response rating, Speedwell [1, 18] | Plant response rating, Chamomile [5, 15] | Plant response rating, Chamomile [5, 16] | Plant response rating (scale of 0 to 100), Chamomile ([5]; Preemergence, 31 g ai/ha) | Plant response rating (scale of 0 to 100), Chamomile ([5]; Preemergence, 62 g ai/ha) | Plant response rating, Chamomile [5, 17] | Plant response rating, Chamomile [5, 18] | Plant response rating, Chamomile [5, 19] | Plant response rating, Lambsquarters [6, 16] | Plant response rating, Lambsquarters [6, 17] | Plant response rating, Lambsquarters [6, 18] | Plant response rating, Radish, Wild [8, 18] | Plant response rating, Field Violet [11, 15] | Plant response rating, Field Violet [11, 16] | Plant response rating (scale of 0 to 100), Field Violet ([11]; Preemergence, 31 g ai/ha) | Plant response rating, Field Violet [11, 18] | Plant response rating, Field Violet [11, 19] | Plant response rating, Windgrass [12, 17] | Plant response rating, Windgrass [12, 18]
10: Plant response rating, Barley, Spring [4, 18] | Deadnettle plant response rating [13, 14] | Plant response rating (scale of 0 to 100), Deadnettle ([13]; Preemergence, 31 g ai/ha) | Plant response rating, Deadnettle [13, 19]
5: Plant response rating, Barley, Spring [4, 16] | Plant response rating, Barley, Spring [4, 19] | Plant response rating, Wheat, Spring [10, 16]
